Experimental data published in patent publication US20260034091A1, “Compositions and Methods for Treating Metabolic Disorders” (The Regents of the University of California, priority 2022, published 2026).

Test system: CDAHFD-induced late stage NAFLD/NASH in mice
Assay: Benchmark study against Firsocostat and Fenofibrate in CDAHFD-induced late stage NAFLD/NASH
Type: in vivo, C57BL/6J male mice
Conditions: QD oral gavage four weeks; TOFA 250 mg/kg, Firsocostat 5 mg/kg, Fenofibrate 50 mg/kg
Protocol: Six-week-old C57BL/6J male mice were fed with a L-amino acid diet with 60 kcal % fat with 0.1% methionine and no added choline (CDAHFD; Research Diets A06071302i) for eight weeks. Mice were randomly assigned to treatment groups of either a vehicle (control), 250 mg/kg of TOFA, 5 mg/kg of Firsocostat (Gilead Sciences), 50 mg/kg of Fenofibrate, or a combined dose of 5 mg/kg Firsocostat and 50 mg/kg Fenofibrate. All treatments were delivered QD by oral gavage for an additional four weeks. Mice weights and food intake were monitored during the treatment time course. Upon study termination at 12 weeks, liver and serum samples were collected. Serum liver damage biomarkers, ALT and AST, were measured by commercially available kits (abcam 105134 and abcam 105135, respectively). Hepatic and serum triglyceride levels were measured from a commercially available kit (abcam65336). Total RNA was extracted from liver tissues (Qiagen RNeasy kit 74106), and cDNA was prepared (BioRAD iScript™ Reverse Transcription) according to manufacturer's protocols. Quantitative PCR (qPCR) was performed with fast SYBR Green Mix (ThermoFisher A25742) on the QuantStudio6 System (Applied Biosciences). Protein expression levels of liver samples were measured by western blot using antibodies against VLDLR (AF2258, 1:2000), CPT1A (CST12252, 1:1000) and Histone H3 (CST9715, 1:1000). Membranes were developed using a HRP secondary antibody (1:5000) and visualized using an enhanced chemiluminescent HRP substrate (Thermo34577). Additional liver samples were fixed in 4% paraformaldehyde and embedded in paraffin blocks for sectioning and subsequently stained with hematoxylin and eosin (H&E).

## COc1ccccc1[C@H](Cn1c(=O)n(C(C)(C)C(=O)O)c(=O)c2c(C)c(-c3ncco3)sc21)OC1CCOCC1 [Firsocostat, reference compound]
  serum ALT: decreases
  serum AST: decreases
